Assay: xn = mol fraction of the nth substance listed
Details: for surface tension liquid-gas: Drop volume; for viscosity / mass density: 100 kPa, Liquid; for viscosity: Concentric cylinders viscometry; for mass density: Vibrating tube method

CCC1CCCCC1 [ethylcyclohexane] + CC(C)CC(C)(C)C
Details | mass density [kg/m3] | surface tension liquid-gas [mN/m] | viscosity [mPa·s]
293.15 K, x1 = 0.1 | 700.76 | 19.51 | 0.54
293.15 K, x1 = 0.1999 | – | 19.99 | –
293.15 K, x1 = 0.2 | 709.8 | – | 0.565
293.15 K, x1 = 0.3 | – | 20.57 | –
293.15 K, x1 = 0.3003 | 719.07 | – | 0.591
293.15 K, x1 = 0.3997 | 728.38 | – | 0.619
293.15 K, x1 = 0.4 | – | 21.13 | –
293.15 K, x1 = 0.5 | – | 21.74 | –
293.15 K, x1 = 0.5002 | 737.96 | – | 0.65
293.15 K, x1 = 0.6001 | – | 22.44 | –
293.15 K, x1 = 0.6005 | 747.68 | – | 0.684
293.15 K, x1 = 0.7002 | 757.5 | – | 0.719
293.15 K, x1 = 0.7004 | – | 23.16 | –
293.15 K, x1 = 0.8001 | – | 24 | –
293.15 K, x1 = 0.8003 | 767.49 | – | 0.758
293.15 K, x1 = 0.8994 | – | 24.75 | –
293.15 K, x1 = 0.8997 | 777.58 | – | 0.801
293.15 K, x1 = 1 | 787.98 | 25.47 | 0.848
298.15 K, x1 = 0.1 | 696.71 | 18.91 | 0.513
298.15 K, x1 = 0.1999 | – | 19.38 | –
298.15 K, x1 = 0.2 | 705.71 | – | 0.536
298.15 K, x1 = 0.3 | – | 19.88 | –
298.15 K, x1 = 0.3003 | 715.02 | – | 0.56
298.15 K, x1 = 0.3997 | 724.34 | – | 0.586
298.15 K, x1 = 0.4 | – | 20.4 | –
298.15 K, x1 = 0.5 | – | 21.01 | –
298.15 K, x1 = 0.5002 | 733.9 | – | 0.613
298.15 K, x1 = 0.6001 | – | 21.67 | –
298.15 K, x1 = 0.6005 | 743.64 | – | 0.644
298.15 K, x1 = 0.7002 | 753.47 | – | 0.677
298.15 K, x1 = 0.7004 | – | 22.45 | –
298.15 K, x1 = 0.8001 | – | 23.23 | –
298.15 K, x1 = 0.8003 | 763.46 | – | 0.712
298.15 K, x1 = 0.8994 | – | 24 | –
298.15 K, x1 = 0.8997 | 773.57 | – | 0.751
298.15 K, x1 = 1 | 783.97 | 24.76 | 0.793
303.15 K, x1 = 0.1 | 692.57 | 18.49 | 0.489
303.15 K, x1 = 0.2 | 701.62 | 18.96 | 0.509
303.15 K, x1 = 0.3003 | 710.92 | 19.61 | 0.531
303.15 K, x1 = 0.3997 | 720.25 | 19.97 | 0.555
303.15 K, x1 = 0.5002 | 729.84 | 20.62 | 0.581
303.15 K, x1 = 0.6005 | 739.57 | 21.24 | 0.609
303.15 K, x1 = 0.7002 | 749.4 | 22.12 | 0.638
303.15 K, x1 = 0.8003 | 759.41 | 22.89 | 0.671
303.15 K, x1 = 0.8997 | 769.52 | 23.75 | 0.706
303.15 K, x1 = 1 | 779.93 | 24.55 | 0.745
308.15 K, x1 = 0.1 | 688.43 | 18 | 0.466
308.15 K, x1 = 0.1999 | – | 18.45 | –
308.15 K, x1 = 0.2 | 697.49 | – | 0.485
308.15 K, x1 = 0.3 | – | 18.91 | –
308.15 K, x1 = 0.3003 | 706.8 | – | 0.505
308.15 K, x1 = 0.3997 | 716.14 | – | 0.527
308.15 K, x1 = 0.4 | – | 19.39 | –
308.15 K, x1 = 0.5 | – | 19.98 | –
308.15 K, x1 = 0.5002 | 725.74 | – | 0.55
308.15 K, x1 = 0.6001 | – | 20.65 | –
308.15 K, x1 = 0.6005 | 735.47 | – | 0.577
308.15 K, x1 = 0.7002 | 745.32 | – | 0.604
308.15 K, x1 = 0.7004 | – | 21.4 | –
308.15 K, x1 = 0.8001 | – | 22.11 | –
308.15 K, x1 = 0.8003 | 755.35 | – | 0.634
308.15 K, x1 = 0.8994 | – | 22.94 | –
308.15 K, x1 = 0.8997 | 765.46 | – | 0.666
308.15 K, x1 = 1 | 775.88 | 23.74 | 0.702
313.15 K, x1 = 0.1 | – | – | 0.446
313.15 K, x1 = 0.1012 | 684.26 | – | –
313.15 K, x1 = 0.2 | – | – | 0.464
313.15 K, x1 = 0.2003 | 693.35 | – | –
313.15 K, x1 = 0.3001 | 702.64 | – | –
313.15 K, x1 = 0.3003 | – | – | 0.482
313.15 K, x1 = 0.3997 | – | – | 0.503
313.15 K, x1 = 0.4019 | 712.01 | – | –
313.15 K, x1 = 0.5002 | – | – | 0.524
313.15 K, x1 = 0.5008 | 721.61 | – | –
313.15 K, x1 = 0.6 | 731.36 | – | –
313.15 K, x1 = 0.6005 | – | – | 0.548
313.15 K, x1 = 0.6998 | 741.23 | – | –
313.15 K, x1 = 0.7002 | – | – | 0.573
313.15 K, x1 = 0.8 | 751.26 | – | –
313.15 K, x1 = 0.8003 | – | – | 0.601
313.15 K, x1 = 0.8997 | – | – | 0.63
313.15 K, x1 = 0.9 | 761.39 | – | –
313.15 K, x1 = 1 | 771.82 | – | 0.663
318.15 K, x1 = 0.1 | – | – | 0.429
318.15 K, x1 = 0.1012 | 680.05 | – | –
318.15 K, x1 = 0.2 | – | – | 0.445
318.15 K, x1 = 0.2003 | 689.16 | – | –
318.15 K, x1 = 0.3001 | 698.38 | – | –
318.15 K, x1 = 0.3003 | – | – | 0.461
318.15 K, x1 = 0.3997 | – | – | 0.481
318.15 K, x1 = 0.4019 | 707.8 | – | –
318.15 K, x1 = 0.5002 | – | – | 0.5
318.15 K, x1 = 0.5008 | 717.38 | – | –
318.15 K, x1 = 0.6 | 727.09 | – | –
318.15 K, x1 = 0.6005 | – | – | 0.522
318.15 K, x1 = 0.6998 | 737.02 | – | –
318.15 K, x1 = 0.7002 | – | – | 0.548
318.15 K, x1 = 0.8 | 747.05 | – | –
318.15 K, x1 = 0.8003 | – | – | 0.573
318.15 K, x1 = 0.8997 | – | – | 0.598
318.15 K, x1 = 0.9 | 757.21 | – | –
318.15 K, x1 = 1 | 767.69 | – | 0.628
323.15 K, x1 = 0.1 | – | – | 0.412
323.15 K, x1 = 0.1012 | 675.82 | – | –
323.15 K, x1 = 0.2 | – | – | 0.427
323.15 K, x1 = 0.2003 | 684.95 | – | –
323.15 K, x1 = 0.3001 | 694.19 | – | –
323.15 K, x1 = 0.3003 | – | – | 0.442
323.15 K, x1 = 0.3997 | – | – | 0.46
323.15 K, x1 = 0.4019 | 703.63 | – | –
323.15 K, x1 = 0.5002 | – | – | 0.478
323.15 K, x1 = 0.5008 | 713.22 | – | –
323.15 K, x1 = 0.6 | 722.95 | – | –
323.15 K, x1 = 0.6005 | – | – | 0.499
323.15 K, x1 = 0.6998 | 732.88 | – | –
323.15 K, x1 = 0.7002 | – | – | 0.522
323.15 K, x1 = 0.8 | 742.93 | – | –
323.15 K, x1 = 0.8003 | – | – | 0.546
323.15 K, x1 = 0.8997 | – | – | 0.569
323.15 K, x1 = 0.9 | 753.1 | – | –
323.15 K, x1 = 1 | 763.59 | – | 0.597
333.15 K, x1 = 0.1 | – | – | 0.383
333.15 K, x1 = 0.1012 | 667.27 | – | –
333.15 K, x1 = 0.2 | – | – | 0.396
333.15 K, x1 = 0.2003 | 676.43 | – | –
333.15 K, x1 = 0.3001 | 685.73 | – | –
333.15 K, x1 = 0.3003 | – | – | 0.409
333.15 K, x1 = 0.3997 | – | – | 0.425
333.15 K, x1 = 0.4019 | 695.2 | – | –
333.15 K, x1 = 0.5002 | – | – | 0.44
333.15 K, x1 = 0.5008 | 704.82 | – | –
333.15 K, x1 = 0.6 | 714.58 | – | –
333.15 K, x1 = 0.6005 | – | – | 0.457
333.15 K, x1 = 0.6998 | 724.55 | – | –
333.15 K, x1 = 0.7002 | – | – | 0.478
333.15 K, x1 = 0.8 | 734.62 | – | –
333.15 K, x1 = 0.8003 | – | – | 0.498
333.15 K, x1 = 0.8997 | – | – | 0.518
333.15 K, x1 = 0.9 | 744.81 | – | –
333.15 K, x1 = 1 | 755.35 | – | 0.541
343.15 K, x1 = 0.1 | – | – | 0.358
343.15 K, x1 = 0.1012 | 658.57 | – | –
343.15 K, x1 = 0.2 | – | – | 0.369
343.15 K, x1 = 0.2003 | 667.78 | – | –
343.15 K, x1 = 0.3001 | 677.13 | – | –
343.15 K, x1 = 0.3003 | – | – | 0.38
343.15 K, x1 = 0.3997 | – | – | 0.395
343.15 K, x1 = 0.4019 | 686.64 | – | –
343.15 K, x1 = 0.5002 | – | – | 0.408
343.15 K, x1 = 0.5008 | 696.31 | – | –
343.15 K, x1 = 0.6 | 706.12 | – | –
343.15 K, x1 = 0.6005 | – | – | 0.423
343.15 K, x1 = 0.6998 | 716.12 | – | –
343.15 K, x1 = 0.7002 | – | – | 0.441
343.15 K, x1 = 0.8 | 726.23 | – | –
343.15 K, x1 = 0.8003 | – | – | 0.458
343.15 K, x1 = 0.8997 | – | – | 0.476
343.15 K, x1 = 0.9 | 736.46 | – | –
343.15 K, x1 = 1 | 747.03 | – | 0.496
